US7759392B2, “Pharmaceutical compounds” (Nicox S.A., priority 1999, dated 2010)
Read-outs that look alike come from different tables or passages of the source.

Columns and labels:
gastrointestinal mucosa [1] = details: rat, in vivo, po
gastrointestinal mucosa [2] = details: male, Wistar, rat, in vivo, 6 h
Procedure: Gastric lesions induced by administration of the compounds of the invention in the confront of the corresponding drug precursor.
The animals have been sacrificed 6 hours after the administration. The gastrointestinal mucosa has been removed and inspected. The incidence of the gastrointestinal damage has been evaluated as described in experiment F1.

[3] = test system: human endothelial cells of the umbilical vein; experiment: Test 2 (CIP): apoptosis (DNA fragmentation) induced by cumene hydroperoxide in endothelial cells; assay type: cell-based; details: drug 10^-4 M; CIP 5 mM
Procedure: Test 2 (CIP): Protection parameter of endothelial cell against the oxidative stress induced by cumene hydroperoxide (CIP).
Human endothelial cells of the umbilical vein are prepared according to an usual standard procedure. Fresh umbilical veins are filled with a 0.1% by weight collagenase solution and incubated at 37° C. for 5 minutes.
The cells are collected from the perfusate by centrifugation and harvested in culture flasks T-75, pretreated with human fibronectin. The cells are then harvested in the same medium, further added with 10 ng/ml of bovine hypothalamic growth factor. When the cells of the primary cell culture (i.e. that directly obtained from ex-vivo) form a single layer of confluent cells (about 8,000,000 cells/flask), the culture is stopped and the layers washed and trypsinized. The cellular suspensions are transferred into the wells of a cell culture plate having 24 wells, half of which is then additioned with the same culture medium containing the drug at a 10^−4M concentration, and harvested in a thermostat at 37° C. at a constant moisture. Only the cells coming from said first sub-cultures are used for the experiments with cumene hydroperoxide (CIP).
Before starting the test, the cellular culture medium is removed and the cellular layers are carefully washed with a physiologic solution at a temperature of 37° C. The wells of the culture plate are then incubated for one hour with CIP at a 5 mM concentration in the culture medium. […] 5 replicates for each sample are carried out.
Human endothelial cells of the umbilical vein are prepared according to a standard method. Fresh umbilical veins are filled with a collagenase solution 0.1% by weight and incubated at 37° C. for 5 minutes.
The cells are collected from the perfusate by centrifugation at 800 rpm and harvested in culture flasks T-75, pretreated with human fibronectin. Cells are then harvested in the same medium, added with bovine hypothalamic growth factor (100 ng/ml). When the cells of the primary cell culture (the cells directly removed from ex-vivo umbilical vein) form a single layer of confluent cells (about 8,000,000 cells/flask), harvesting is stopped and the layers are washed and trypsinized. The cellular suspensions are transferred into wells of a culture plate having 24 wells, half of said wells being added with the same culture medium containing the drug at a 10^−4M concentration, and harvested in a thermostat at 37° C. at a constant moisture (90%), CO2=5%. When the drug is not soluble in the culture medium, it is formerly dissolved in a small amount of dimethylsulphoxide. The maximum amount of dimethylsulphoxide which can be added to the culture medium is 0.5%. Only the cells coming from these first subcultures are used for the tests with cumene hydroperoxide (CIP).
Before starting the test, the cellular culture medium is removed and the cellular layers are carefully washed with a standard physiologic solution buffered with phosphate 0.1 M pH 7.0, at the temperature of 37° C. The content of each well is then incubated for one hour with a CIP suspension in the culture medium at a 5 mM concentration. Evaluation of the cellular damage (apoptosis) is carried out by determining the percent variation of the DNA fragmentation in the cultures containing the drug+CIP with respect to the controls treated with CIP only. […] The fluorescence of each sample was determined on 5 replicates. Statistic evaluation has been made with t Student test (p<0.01).

gastrointestinal mucosa [4] = details: rat, in vivo
Procedure: The animals (rats) are distributed in the following groups (no. 10 animals for group):
• 1° group: treatment: only carrier (aqueous suspension 1% w/v of carboxymethylcellulose, dose: 5 ml/Kg when the drug is administered by os, or a physiologic solution when parenterally administered, i.e. by subcutaneous, intraperitoneal, intravenous or intermuscular route), • 2° group: treatment: carrier as above defined+NEM, B) Groups Treated with the Drug: • group I: treatment: carrier+drug, • group II: treatment: carrier+drug+NEM.
The administration routes are those known for the drug, and can be the oral or subcutaneous, intraperitoneal, intravenous or intramuscular route.
The animals are sacrificed after 24 hours and then one proceeds to the evaluation of the damage to the gastrointestinal mucosa.
Test 1—experimental model in vivo with N-ethylmaleimide (NEM): study of the gastric tolerability of some drugs screened as precursors of the compounds of the invention.
The animals (rats, weight about 200 g) are distributed in the following groups (No. 10 animals for group):
• 1° group: treatment: only carrier (aqueous suspension 1% w/v of carboxymethylcellulose, dose: 5 ml/Kg when the drug is administered by os, physiologic solution when by parenteral route), • 2° group: treatment: carrier+NEM, B) Groups Administered with Each Drug: • group I: treatment: carrier+drug, • group II: treatment: carrier+drug+NEM.
The drug is administered one hour later, in suspension in the carrier. Animals are sacrificed after 24 hours and evaluation of the damage to the gastrointestinal mucosa is made by counting the number of rats, inside each group, with lesions to the stomach at a visual inspection. The total number of said rats is then divided by the total number of rats of the group and multiplied by 100.

[5] = test system: human endothelial cells of the umbilical vein; experiment: Experiment F6: apoptosis (DNA fragmentation) induced in endothelial cells by hydrogen peroxide; assay type: cell-based; details: Endothelial cell, products 100 mmoles/l, hydrogen peroxide 200 mmoles/l, 18 hours, read-out: Apoptosis % (respect to the controls treated only with CIP)
Description: It has been Evaluated the Activity of Some of the Compounds Object of the Present Invention and of the Corresponding Precursor Drugs in Inhibiting DNA Degradation (Apoptosis) in Endothelial Cells Exposed to the Action of Hydrogen Peroxide (HP)
Hydrogen peroxide is a mild oxidant and is considered as an essential mediating agent in pathologies associated with oxidative stress (B. Halliwell, J. Gutteridge “Free Radicals in Biology and Medicine”, page 416, 1993). Therefore the pharmacological activity of compounds to be used under oxidative stress conditions is evaluated through their capability of neutralizing the cytolesive effects of the hydrogen peroxide (B. Halliwell, J. Gutteridge “Free Radicals in Biology and Medicine”, page 416, 1993).
The method described by Herman et Al. (Herman C., Zeiner M. A., Dimmeler S., Arterioscler. Thromb. Vasc. Biol. 17 (12), 3588-82, 1997).
Human endothelial cells of the umbilical vein are prepared according to a standard method. Fresh umbilical veins, just removed, are filled with a solution of collagenase at 0.1% and incubated at 37° C. for 5 minutes.
Subsequently the veins are perfused with medium M 199 (GIBCO, Grand Island, N.Y.) pH 7.4 containing 20% of human serum. The cells are collected from the perfusate by centrifugation at 800 rpm and harvested in culture flasks T-75, pretreated with human fibronectin. […]

With CN(CCOC(=O)Cc1ccccc1Nc1c(Cl)cccc1Cl)CCO[N+](=O)[O-] [Example 14] the Gastropathy % incidence (gastrointestinal mucosa [1]) was 20% and the Gastropathy % incidence (gastrointestinal mucosa [2]) was 0%.
With Nc1c2c(nc3ccccc13)CCCC2 [Tacrine, tacrine] the “inhibition of apoptosis induced by CIP (in words, p<0.01)” value [3] was “do not significantly inhibit apoptosis”, the “Gastro-enteropathy (% incidence) without NEM” value (gastrointestinal mucosa [4]) was 0% and the “gastrointestinal damages / gastric lesions in rats treated with NEM + drug (in words)” value (gastrointestinal mucosa [4]) was “showed gastric lesions”. The Gastropathy % incidence (gastrointestinal mucosa [2]) was 60% and the activity at 100000 µM [5] was 8%.
